# Reference: article PMC7162861, “Synthesis, cytotoxicity, pharmacokinetic profile, binding with DNA and BSA of new imidazo[1,2-a]pyrazine-benzo[d]imidazol-5-yl hybrids” (Scientific Reports, 2020)
# Assays:
# NCI-H226 = assay: NCI cytotoxicity screen, Non-Small Cell Lung Cancer panel; format: cell-based, human; details: Homo sapiens, single dose 10 µM, negative = lethal, read-out: Percent growth inhibition
# Procedure: (§1) Cytotoxicity was performed at National Cancer Institute (NCI), Bethesda, USA as per their protocols.
# NCI-522 = assay: as above; format: cell-based, human; details: Homo sapiens; NCI-522; single dose 10 µM; negative = lethal; read-out: Percent growth inhibition
# Procedure: as §1
# NCI-H322M = assay: as above; format: cell-based, human; details: Homo sapiens, single dose 10 µM, negative = lethal, read-out: Percent growth inhibition
# Procedure: as §1
# NCI-H23 = assay: as above; format: cell-based, human; details: Homo sapiens, single dose 10 µM, negative = lethal, read-out: Percent growth inhibition
# Procedure: as §1
# A498 = assay: NCI cytotoxicity screen, Renal Cancer panel; format: cell-based; details: Homo sapiens, single dose 10 µM, negative = lethal, read-out: Percent growth inhibition
# Procedure: as §1
# CAKI-1 = assay: NCI cytotoxicity screen, Renal Cancer panel; format: cell-based; details: Homo sapiens; CAKI-1; single dose 10 µM; negative = lethal; read-out: Percent growth inhibition
# Procedure: as §1
# ACHN = assay: NCI cytotoxicity screen, Renal Cancer panel; format: cell-based; details: Homo sapiens, single dose 10 µM, negative = lethal, read-out: Percent growth inhibition
# Procedure: as §1
# RXF 393 = assay: NCI cytotoxicity screen, Renal Cancer panel; format: cell-based; details: Homo sapiens, single dose 10 µM, negative = lethal, read-out: Percent growth inhibition
# Procedure: as §1
# UO-31 = assay: NCI cytotoxicity screen, Renal Cancer panel; format: cell-based; details: Homo sapiens, single dose 10 µM, negative = lethal, read-out: Percent growth inhibition
# Procedure: as §1
# SN12C = assay: NCI cytotoxicity screen, Renal Cancer panel; format: cell-based; details: Homo sapiens, single dose 10 µM, negative = lethal, read-out: Percent growth inhibition
# Procedure: as §1
# COLO 205 = assay: NCI cytotoxicity screen, Colon Cancer panel; format: cell-based; details: Homo sapiens, single dose 10 µM, negative = lethal, read-out: Percent growth inhibition
# Procedure: as §1
# HCT-15 = assay: NCI cytotoxicity screen, Colon Cancer panel; format: cell-based; details: Homo sapiens, single dose 10 µM, negative = lethal, read-out: Percent growth inhibition
# Procedure: as §1
# HT29 = assay: NCI cytotoxicity screen, Colon Cancer panel; format: cell-based; details: Homo sapiens, HT-29; HT29; single dose 10 µM; negative = lethal; read-out: Percent growth inhibition
# Procedure: as §1
# HCT-116 = assay: NCI cytotoxicity screen, Colon Cancer panel; format: cell-based; details: Homo sapiens, single dose 10 µM, negative = lethal, read-out: Percent growth inhibition
# Procedure: as §1
# CCRF-CEM = assay: NCI cytotoxicity screen, Leukemia panel; format: cell-based; details: Homo sapiens, single dose 10 µM, negative = lethal, read-out: Percent growth inhibition
# Procedure: as §1
# SR = assay: NCI cytotoxicity screen, Leukemia panel; format: cell-based; details: Homo sapiens, single dose 10 µM, negative = lethal, read-out: Percent growth inhibition
# Procedure: as §1
# MOLT-4 = assay: NCI cytotoxicity screen, Leukemia panel; format: cell-based; details: Homo sapiens, MOLT-4, MOLT-4; single dose 10 µM; negative = lethal; read-out: Percent growth inhibition
# Procedure: as §1
# K-562 = assay: NCI cytotoxicity screen, Leukemia panel; format: cell-based; details: Homo sapiens, K562; K-562; single dose 10 µM; negative = lethal; read-out: Percent growth inhibition
# Procedure: as §1
# RPMI-8226 = assay: NCI cytotoxicity screen, Leukemia panel; format: cell-based; details: Homo sapiens; RPMI-8226; single dose 10 µM; negative = lethal; read-out: Percent growth inhibition
# Procedure: as §1
# HL-60(TB) = assay: NCI cytotoxicity screen, Leukemia panel; format: cell-based; details: Homo sapiens, HL-60, HL-60(TB); single dose 10 µM; negative = lethal; read-out: Percent growth inhibition
# Procedure: as §1
# [1] = Experimental log P, shake-flask method; format: physicochemical; details: n-octanol/phosphate buffer pH 7.4, read-out: Exp. Log P
# Outline: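 Shake-flask partitioning between n-octanol and phosphate buffer pH 7.4, shaken 50 min, then centrifuged 35 min at 2500 rpm. Buffer-phase absorbance at each compound's λmax measured before and after partitioning. P calculated from absorbance drop and phase volume ratio.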
# OVCAR-3 = assay: NCI cytotoxicity screen, Ovarian Cancer panel; format: cell-based, human; details: Homo sapiens; OVCAR-3; single dose 10 µM; negative = lethal; read-out: Percent growth inhibition
# Procedure: as §1
# M14 = assay: NCI cytotoxicity screen, Melanoma panel; format: cell-based, human; details: Homo sapiens, single dose 10 µM, negative = lethal, read-out: Percent growth inhibition
# Procedure: as §1
# UACC-62 = assay: NCI cytotoxicity screen, Melanoma panel; format: cell-based, human; details: Homo sapiens, single dose 10 µM, negative = lethal, read-out: Percent growth inhibition
# Procedure: as §1
# LOX IMVI = assay: NCI cytotoxicity screen, Melanoma panel; format: cell-based, human; details: Homo sapiens, single dose 10 µM, negative = lethal, read-out: Percent growth inhibition
# Procedure: as §1
# PC-3 = assay: NCI cytotoxicity screen, Prostate Cancer panel; format: cell-based, human; details: Homo sapiens, single dose 10 µM, negative = lethal, read-out: Percent growth inhibition
# Procedure: as §1
# DU-145 = assay: NCI cytotoxicity screen, Prostate Cancer panel; format: cell-based, human; details: Homo sapiens, single dose 10 µM, negative = lethal, read-out: Percent growth inhibition
# Procedure: as §1
# SK-MEL-2 = assay: NCI cytotoxicity screen, Melanoma panel; format: cell-based; details: Homo sapiens, single dose 10 µM, negative = lethal, read-out: Percent growth inhibition
# Procedure: as §1
# UACC-257 = assay: NCI cytotoxicity screen, Melanoma panel; format: cell-based; details: Homo sapiens, single dose 10 µM, negative = lethal, read-out: Percent growth inhibition
# Procedure: as §1
# MALME-3M = assay: NCI cytotoxicity screen, Melanoma panel; format: cell-based; details: Homo sapiens; MALME-3M; single dose 10 µM; negative = lethal; read-out: Percent growth inhibition
# Procedure: as §1
# MDA-MB-435 = assay: NCI cytotoxicity screen, Melanoma panel; format: cell-based; details: Homo sapiens, MDA-MB-435, read-out: Percent growth inhibition
# Procedure: as §1
# SK-MEL-5 = assay: NCI cytotoxicity screen, Melanoma panel; format: cell-based; details: Homo sapiens, single dose 10 µM, negative = lethal, read-out: Percent growth inhibition
# Procedure: as §1
# SK-MEL-28 = assay: NCI cytotoxicity screen, Melanoma panel; format: cell-based; details: Homo sapiens, single dose 10 µM, negative = lethal, read-out: Percent growth inhibition
# Procedure: as §1
# EXVX = assay: NCI cytotoxicity screen, Non-Small Cell Lung Cancer panel; format: cell-based; details: Homo sapiens; EXVX; single dose 10 µM; negative = lethal; read-out: Percent growth inhibition
# Procedure: as §1
# A549/ATCC = assay: as above; format: cell-based; details: Homo sapiens; A549/ATCC; single dose 10 µM; negative = lethal; read-out: Percent growth inhibition
# Procedure: as §1
# HOP-92 = assay: as above; format: cell-based; details: Homo sapiens, single dose 10 µM, negative = lethal, read-out: Percent growth inhibition
# Procedure: as §1
# NCI-H460 = assay: as above; format: cell-based; details: Homo sapiens, single dose 10 µM, negative = lethal, read-out: Percent growth inhibition
# Procedure: as §1
# HOP-62 = assay: as above; format: cell-based; details: Homo sapiens, single dose 10 µM, negative = lethal, read-out: Percent growth inhibition
# Procedure: as §1
# SF-295 = assay: NCI cytotoxicity screen, CNS Cancer panel; format: cell-based; details: Homo sapiens, single dose 10 µM, negative = lethal, read-out: Percent growth inhibition
# Procedure: as §1
# SF-268 = assay: NCI cytotoxicity screen, CNS Cancer panel; format: cell-based; details: Homo sapiens, single dose 10 µM, negative = lethal, read-out: Percent growth inhibition
# Procedure: as §1
# SNB-75 = assay: NCI cytotoxicity screen, CNS Cancer panel; format: cell-based; details: Homo sapiens, single dose 10 µM, negative = lethal, read-out: Percent growth inhibition
# Procedure: as §1
# U251 = assay: NCI cytotoxicity screen, CNS Cancer panel; format: cell-based; details: Homo sapiens, U-251; U251; single dose 10 µM; negative = lethal; read-out: Percent growth inhibition
# Procedure: as §1
# SF-539 = assay: NCI cytotoxicity screen, CNS Cancer panel; format: cell-based; details: Homo sapiens, single dose 10 µM, negative = lethal, read-out: Percent growth inhibition
# Procedure: as §1
# SNB-19 = assay: NCI cytotoxicity screen, CNS Cancer panel; format: cell-based; details: Homo sapiens; SNB-19; single dose 10 µM; negative = lethal; read-out: Percent growth inhibition
# Procedure: as §1
compound,measurement,setting,value
"c1cn2cc(-c3ccsc3)nc(-c3ccc4c(c3)ncn4C3CCCCC3)c2n1 [Compound 14, 8-(1-cyclohexyl-1H-benzo[d]imidazol-5-yl)-6-(thiophen-3-yl)imidazo[1,2-a]pyrazine]",inhibition at 10 µM,NCI-H226,< 1%
same,inhibition at 10 µM,NCI-522,10.4%
same,inhibition at 10 µM,NCI-H322M,1.19%
same,inhibition at 10 µM,NCI-H23,8.6%
same,inhibition at 10 µM,A498,< 1%
same,inhibition at 10 µM,CAKI-1,< 1%
same,inhibition at 10 µM,ACHN,4.32%
same,inhibition at 10 µM,RXF 393,< 1%
same,inhibition at 10 µM,UO-31,23.1%
same,inhibition at 10 µM,SN12C,6.33%
same,inhibition at 10 µM,COLO 205,< 1%
same,inhibition at 10 µM,HCT-15,18.8%
same,inhibition at 10 µM,HT29,9.2%
same,inhibition at 10 µM,HCT-116,15.8%
same,inhibition at 10 µM,CCRF-CEM,1.1%
same,inhibition at 10 µM,SR,23.6%
same,inhibition at 10 µM,MOLT-4,14.3%
same,inhibition at 10 µM,K-562,9.6%
same,inhibition at 10 µM,RPMI-8226,20.8%
same,inhibition at 10 µM,HL-60(TB),2.65%
same,logP,[1],1.63
same,inhibition at 10 µM,OVCAR-3,< 1%
same,inhibition at 10 µM,M14,3.43%
same,inhibition at 10 µM,UACC-62,18.5%
same,inhibition at 10 µM,LOX IMVI,14.5%
same,inhibition at 10 µM,PC-3,17.9%
same,inhibition at 10 µM,DU-145,< 1%
same,inhibition at 10 µM,SK-MEL-2,0.58%
same,inhibition at 10 µM,UACC-257,< 1%
same,inhibition at 10 µM,MALME-3M,3.01%
same,inhibition at 10 µM,MDA-MB-435,6%
same,inhibition at 10 µM,SK-MEL-5,24.8%
same,inhibition at 10 µM,SK-MEL-28,< 1%
same,inhibition at 10 µM,EXVX,< 1%
same,inhibition at 10 µM,A549/ATCC,< 1%
same,inhibition at 10 µM,HOP-92,25%
same,inhibition at 10 µM,NCI-H460,7.12%
same,inhibition at 10 µM,HOP-62,7.41%
same,inhibition at 10 µM,SF-295,< 1%
same,inhibition at 10 µM,SF-268,5.01%
same,inhibition at 10 µM,SNB-75,< 1%
same,inhibition at 10 µM,U251,30.2%
same,inhibition at 10 µM,SF-539,2.82%
same,inhibition at 10 µM,SNB-19,3.96%
